Patent US12263226B1, “Neratinib-cyclodextrin composition and method for preparing same” (Hangzhou Jitai Pharmaceutical Technology Co., Ltd, priority 2024, dated 2025)
Read-outs that look alike come from different tables or passages of the source.

Assays:
[1] = cited from earlier work
[2] = Protocol: Preparation of FaSSIF solution (fasted state simulated intestinal fluid, pH 6.5): 0.42 g of NaOH, 3.44 g of NaH2PO4, and 6.19 g of NaCl were added into a beaker before 900 mL of purified water was added. The pH was adjusted and the volume was brought to 1 L with purified water. 2.24 g of FaSSIF powder was added into the 1-L buffer.
Solubility measurement: 400 μL of the FaSSIF solution was added into a scintillation flask, and a small amount of the neratinib-cyclodextrin composition powder was gradually added at room temperature with magnetic stirring until a precipitate was observed. The addition amount of the powder was recorded. The solubility of neratinib maleate was calculated from the loading amount of the powder. Dissolution measurement of the neratinib maleate substance (API): 400 μL of the FaSSIF solution was added into a scintillation flask. An excessive amount of neratinib maleate substance was added.

Molecule | bioavailability ([1]; fasting conditions in humans) [%] | decrease of area under curve (AUC) without the high-fat meal ([1]; humans, approved tablet) [times] | solubility of neratinib maleate ([2]; FaSSIF, excess substance, stirred at room temperature 48 h, supernatant by HPLC) [µg/mL] | solubility of neratinib maleate ([2]; neutral conditions (pH 6.5)) [µg/mL]
CCOc1cc2ncc(C#N)c(Nc3ccc(OCc4ccccn4)c(Cl)c3)c2cc1NC(=O)/C=C/CN(C)C [neratinib, (E)-N-[4-[3-chloro-4-(pyridin-2-ylmethoxy)anilino]-3-cyano-7-ethoxyquinolin-6-yl]-4-(dimethylamino) but-2-enamide] | < 17 | 2.2 |  | 
neratinib maleate |  |  | 7.4 | 7.4
